Source: the METLIN SMRT retention time set (Domingo-Almenara et al. 2019)

Assay: gradient 5% acetonitrile 3 min, to 50% in 2 min, to 85% in 15 min, held 3 min, 100 µL/min
Conditions: column: Zorbax Extend-C18 2.1 x 50 mm; eluents: water / acetonitrile, 0.1% formic acid
In short: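 Mixtures of ~100 pure standards were chromatographed on a Zorbax Extend-C18 column (2.1 × 50 mm, 1.8 μm) at 100 μL/min using water and acetonitrile, each with 0.1% formic acid. Detection used a quadrupole time-of-flight mass spectrometer in positive and negative ionization mode, and data collection spanned 3 months. Retention time was obtained from adduct peaks picked computationally and each checked manually.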

| Compound | RP-LC retention time [s] |
| --- | --- |
| O=C(Cn1nc2n(c1=O)CCCCC2)Nc1ccc(Br)cc1 | 726 |
| COc1ccc(C(C)NC(=O)Cn2nc3cc(-c4ccccc4)nc(C)n3c2=O)cc1 (configuration not stated) | 908 |
| O=C(c1ccc2nc[nH]c2c1)N1CCCN(c2cc(-c3ccc(Br)cc3)[nH]n2)CC1 | 625 |
| COC1CCC12CCN(C(=O)Nc1ccccc1)CC2 (configuration not stated) | 782 |
| O=C(NCc1ccccc1Cl)c1c(O)c2cccnc2n(-c2ccc(F)cc2)c1=O | 1240 |
| CCc1cccc(CC)c1NC(=O)c1cccc(OC)c1 | 875 |
| CCOc1ccc(OCC)c(NC(=O)Cc2csc3nc(-c4ccc(OC)c(OC)c4)cn23)c1 | 870 |
| COc1ccc(-c2noc(-c3nc(C)no3)n2)c(OC)c1 | 888 |
| Cc1ccc2oc(C(=O)N3CCC(CCN4CCCC4)CC3)cc(=O)c2c1 | 603 |
| CCc1noc(-c2ccc(-n3ncc(C(=O)NC4CCCCC4)c3C)nc2)n1 | 1020 |
| CCCn1c(=O)c2cc(C(=O)Nc3ccccc3)nn2c2ccccc21 | 1030 |
| CCc1sc(NC(=O)Cn2nc3c(cc2=O)CCCC3)nc1C(=O)OC | 764 |
| CCN1C(=O)C2CCCCN2c2ccc(C(=O)N3CCN(c4ccccc4)CC3)cc21 (configuration not stated) | 974 |
| Cc1ccc(S(=O)(=O)N2CCCN(c3ccc(=O)n(-c4ccc(F)cc4)n3)CC2)c(C)c1 | 961 |
| O=C(NCC1CCOCC1)Nc1ccc(Cl)cc1F | 764 |
| CN1C(=O)CS(=O)C12CCN(C(=O)Nc1ccccc1)CC2 (configuration not stated) | 599 |
| Cc1cc(OCC(O)CN2CCN(C)CC2)ccc1Cl (configuration not stated) | 558 |
| CCOc1ccccc1C(=O)NC1(c2nc(-c3cccnc3)no2)CCCCC1 | 1050 |
| CC(C)c1ccc(OCC(=O)NCCS(=O)(=O)N2CCN(c3ncccn3)CC2)cc1 | 856 |
| O=C(C1=NN(Cc2ccccc2F)c2ccc(Cl)cc2S1(=O)=O)N1CCOCC1 | 875 |
| CCn1ccc2cc(S(=O)(=O)N3CCCC(C(=O)NCCN4CCCCC4)C3)ccc21 (configuration not stated) | 668 |
| CCNc1cc(N2CCC(CCC(=O)NCc3cccs3)CC2)ncn1 | 627 |
| COc1ccccc1N1CCN(c2ncc(C(F)(F)F)cc2Cl)CC1 | 1210 |

| Compound | RP-LC retention time [s] |
| --- | --- |
| COc1ccc(NC(=O)Cn2c(=O)c3cc(C)nn3c3ncccc32)cc1Cl | 724 |
| CC(=O)NC(C)c1nc(-c2ccc(C(C)(C)C)cc2)no1 (configuration not stated) | 901 |
| COCc1nc2cccnc2n1C1CCN(C(=O)Nc2ccc(Br)c(C)c2)CC1 | 753 |
| CCN1CCN(c2ccc(N3CCCC(C(=O)N4CCN(c5cccc(Cl)c5)CC4)C3)nn2)CC1 (configuration not stated) | 610 |
| CC1CCC(NC(=O)c2cc3sccc3n2Cc2ccc(F)cc2)CC1 (configuration not stated) | 1260 |
| CCC(=O)N1N=C(c2cccs2)CC1c1cccs1 (configuration not stated) | 880 |
| O=C(c1ccsc1)N1CCCC(c2nc(-c3ccccc3)n[nH]2)C1 (configuration not stated) | 716 |
| Cc1ccc(C)c(CNC(=O)c2cc(-c3ccncc3)cn2C)c1 | 679 |
| COc1cccc(Cn2c(C)c(CNCc3cccnc3)c(C(=O)O)c2C)c1 | 625 |
| CN1C(=O)c2cccn2CC1CNS(=O)(=O)c1ccc(F)cc1 (configuration not stated) | 679 |
| O=C1COc2ccccc2N1Cc1nc(-c2ccc3c(c2)nnn3C2CCCC2)no1 | 1030 |
| COc1cccc(CNC(=O)Cn2c(N(C)Cc3ccccc3)nc(C)cc2=O)c1OC | 660 |
| Cc1ccc(C)c(CS(=O)(=O)N2CCc3nc(-c4ccc(Cl)cc4)ncc3C2)c1 | 1290 |
| O=C(Cn1nc2c3cc(-c4ccc(Cl)cc4)nn3ccn2c1=O)Nc1cc(F)ccc1F | 1020 |
| CCn1ccc(C(=O)Nc2cnc(N3CCCCC3)nc2)n1 | 778 |
| CCC1(C(=O)NCc2ccc(C(C)C)cc2)CCCCC(=O)N1 (configuration not stated) | 814 |
| CCOc1cc(=O)n2c(c1C(=O)Nc1ccc(SC)cc1)CCCC2 | 754 |
| CC(C)(C)c1ccc(C(CNC(=O)c2cc(-c3ccc4c(c3)OCCO4)on2)N2CCCC2)cc1 (configuration not stated) | 844 |
| Cc1cccc2nnc(N3CCCC(C(=O)Nc4ccc(N5CCOCC5)cc4)C3)n12 (configuration not stated) | 625 |
| Cn1c(=O)c2cc(C(=O)N3CCN(c4ccccc4F)CC3)sc2n(C)c1=O | 765 |
| CCNC(=O)Nc1ccc2c(c1)CN(CC1CCCCC1)CCO2 | 610 |
| COc1cccc(NC(=O)Cn2nc3c(Oc4ccc(F)cc4)nccn3c2=O)c1 | 812 |
| CCCNc1cc(N2CCC(CCC(=O)NCCOC)CC2)ncn1 | 590 |

| Compound | RP-LC retention time [s] |
| --- | --- |
| Cn1nc(-c2nc(C3CC3)no2)c2c1CCN(C(=O)Nc1ccc(Cl)cc1)C2 | 882 |
| O=C(c1ccc(-c2noc(C3CC3)n2)cc1)N1CCN(c2nc3cccnc3o2)CC1 | 793 |
| O=C(C1CC1)N1CCc2sc(S(=O)(=O)NCc3ccc(Cl)cc3)cc2C1 | 856 |
| COc1cccc(NC(=O)CCC2CCN(S(=O)(=O)c3ccccc3)CC2)c1 | 936 |
| CN1C(=O)c2cccnc2Sc2cc(NC(=O)c3ccc(OC(F)(F)F)cc3)ccc21 | 936 |
| CC1=C(c2ccc(C)cc2)S(=O)(=O)N=C1N1CCCN(C(=O)c2cccnc2)CC1 | 687 |
| Cc1ccc(-c2csc(NC(=O)Cc3csc(-c4ccccc4)n3)n2)cc1C | 1230 |
| CCCCn1c(=O)c2ccccc2n(Cc2nc(-c3cccc(OCC)c3)no2)c1=O | 1150 |
| O=C(NCc1ccc2c(c1)OCO2)C1Cn2cccc2C(=O)N1Cc1ccccc1 (configuration not stated) | 805 |
| COc1ccc(C2(C(=O)N3C[C@@H](CO)[C@H](c4nc(C)no4)C3)CC2)cc1 | 665 |
| CC(C)c1noc(-c2cccnc2N2CCCN(Cc3c(F)cccc3Cl)CC2)n1 | 721 |
| CON(C)C(=O)N1N=C(c2cc(F)ccc2F)S[C@@]1(CCCN)c1ccccc1 | 792 |
| Cc1ccc(Nc2nc(-c3ccc(Cl)cc3)cs2)nc1 | 1050 |
| C[C@@]12N[C@@H](Cc3ccccc31)c1ccccc12 | 655 |
| CCOc1ccc(C(=O)Nc2nc3c(s2)CCc2ccccc2-3)cc1 | 1200 |
| CC(=O)Nc1cccc(Oc2nc(C)nc3sc4c(c23)CCCC4)c1 | 913 |
| CCOc1ccc(-c2ccc3nnc(SCC(=O)Nc4nc(C)cs4)n3n2)cc1 | 752 |
| O=C(COc1ccc(Cl)cc1)Nc1ccc(-c2nc(-c3ccc(F)cc3)no2)cc1 | 1260 |
| O=c1cccnn1CCNS(=O)(=O)c1ccc(F)c(Cl)c1 | 665 |
| CCn1cc(-c2ccccc2)cc1C(=O)NC(C)c1ccccn1 (configuration not stated) | 749 |
| CC1CCN(C(=O)C2c3ccccc3CCN2CC(=O)Nc2ccc(F)cc2Cl)CC1 (configuration not stated) | 936 |
